Experiments:
red blood cells = assay: Hemolytic assay (hemoglobin release by UV absorption); format: cell-based; conditions: PmB concentrations from 0 MIC to MIC
Method: 12% Triton X-100 was used as a total lysis control, and PBS was used as a negative control.
Hemolysis was determined from hemoglobin release measured by UV absorption. Data are shown for free PmB and Erythro-PmBs at different PmB concentrations from 0 MIC to MIC. Values in the order of 0.03% were determined to be well below the benchmark hemolysis rate of 2% identified by the American Society of Clinical Pathology and were considered to be non-hemolytic. […] Hemolytic activity of the Erythro-PmBs was less than that of free PmB, less than 0.01%, and independent of PmB concentration (within experimental error).

E. coli = assay: Bacterial growth curves (OD600, 24 h) for E. coli; format: cell-based
Method: Bacterial growth curves for E. coli for different concentrations of (free) PmB (MIC, 0.5 MIC, 0.25 MIC, and 0 MIC) are shown in FIG. 12 a). […] Absorbance at 600 nm (OD 600) was measured during a period of 24 h. […] Bacteria treated with 0.25 MIC behaved similarly. A lag phase was observed before the first exponential cycle after the addition of an intermediate concentration of 0.5 MIC, where exponential growth was delayed by ˜9 h. […] Growth curves for E. coli treated with varying concentrations of Erythro-PmBs containing MIC, 0.5 MIC, 0.25 MIC, and 0 MIC of PmB are shown in FIG. 12 b).

K. aerogenes = assay: Bacterial growth curves (OD600, 24 h) for K. aerogenes; format: cell-based, Klebsiella aerogenes
Excerpt: The lengths of the lag phase decreased monotonously with decreasing PmB concentration, similar to E. coli.
Bacterial growth curves for K. aerogenes for different concentrations of (free) PmB (MIC, 0.5 MIC, 0.25 MIC, and 0 MIC) are shown in FIG. 13 a). […] Diauxic growth was less evident in the presence of free PmB: 0.25 MIC to MIC.

For polymyxin B [free PmB], the hemolysis (red blood cells) was ~0.03%, the “delay of exponential growth (lag phase)” value (E. coli; 0.5 MIC) was ~9 h and the “minimum inhibitory concentration (MIC)” value (E. coli; OD600 over 24 h) was 0.63 µg/mL. For the same substance, the “growth at MIC” value (E. coli; PmB content at MIC (0.63 μg/mL)) was “No growth”, the lag phase (K. aerogenes; 0.25 MIC) was 6 h and the lag phase (K. aerogenes; 0.5 MIC) was 9 h. For the same substance, the “minimum inhibitory concentration (MIC)” value (K. aerogenes; OD600 over 24 h) was 1.5 µg/mL.

— US20250041235A1, “FUNCTIONALIZED BIOLOGICAL MEMBRANES WITH MODIFYING PROTEIN MOLECULES, AND METHODS OF MAKING AND USES THEREOF” (McMaster University, priority 2021, published 2025)
